Results taken from patent publication US20250270170A1, “2,3-DIMETHOXY-5-METHYL-1,4-BENZOQUINONE ALKYL ALCOHOL DERIVATIVE AND USE THEREOF” (BEIJING ANJIANXI BIO-MEDICAL TECHNOLOGY CO., LTD., priority 2021, published 2025).

Experiments:
[1] = Example 8: body weight of ECA109 tumor-bearing mice; type: in vivo, nude mice; conditions: DDP 5 mg/kg i.p. QW×4
From the text: The assay animals, calculation of tumor volume (TV), end of assay, data recording, calculation formula of tumor growth inhibition rate TGI (%), and statistical analysis method were the same as those in Example 3; the preparation of the administration formulation of the compound of formula (I) was the same as that in Example 5. […] The cells were pipetted with a pipette to disperse them evenly, and the cells were put into a 50-mL centrifuge tube, which was placed in an ice box. A 1-mL syringe was used to draw the cell suspension, which was injected subcutaneously into the axilla of the front right limb of a […]. Each animal was inoculated with 200 μL (1.0×10^7 cells/mouse) to establish an ECA109 transplanted tumor model in nude mice. After the inoculation, the animal status and tumor growth were regularly observed, and the tumor diameter was measured using an electronic vernier caliper. The data were input into an Excel spreadsheet to calculate the tumor volume. When the tumor volume reached 100 to 300 mm^3, animals in good health and with similar tumor volumes were selected and divided into groups using randomized block method. The day of grouping was regarded as the first day of the assay (D1). After the start of the assay, the tumor diameter was measured twice a week, the tumor volume was calculated, and the animal body weight was also weighed and recorded. [table]

[2] = system: NCI-H460 cells; experiment: Flow cytometry for apoptosis detection (Annexin V-FITC/PI), NCI-H460; type: cell-based, human; conditions: 72 h
Protocol: (§1) (1) Cells were inoculated in a 6-well plate. When the cell growth density was appropriate, four concentrations (0 μM, 10 μM, 30 μM, and 90 μM) of the compound of formula (I) were added, and placed in an incubator at 37° C. with 5% CO2 to continue culturing for 72 hours.
(§2) (2) After reaching the designated time point, the cell culture plate was taken out from the incubator, and placed in a biological safety cabinet. A 4 ml centrifuge tube was taken and marked. The supernatant in the 6-well plate was pipetted out and added to the corresponding 4 ml centrifuge tube. The cells were gently washed with PBS, and the PBS was added to the corresponding centrifuge tube. An appropriate amount of trypsin was added to each well to digest the cells. When the cells were digested to a moderate degree, the liquid in the centrifuge tube was added to the corresponding well. The cells were gently pipetted with a pipette to disperse the cells, and was pipetted back into the original centrifuge tube. The tube was immediately centrifuged at 1500 rpm for 5 minutes. Then, the supernatant was discarded and the precipitate was retained.
(§3) (3) 2 ml of PBS was added to the centrifuge tube, which was centrifuged again at 1000 rpm for 5 minutes. The supernatant was discarded. This step was repeated again.
(§4) (4) The cells were suspended with 1× Binding buffer, and the cell concentration was adjusted to approximately 1×10^6 cells/ml. 100 μl of cell suspension was added to the flow cytometry tube, and 5 μl of PI and 5 μl of Annexin V-FITC were added to each tube. The cells were gently vortexed, and incubated at room temperature in dark for 15 min.
(§5) (5) 400 μl of 1× Binding buffer was further added to each tube, and the detection was performed on the flow cytometer (the detection was in need to be completed within 1 hour).
(§6) We used AnnexinV-FITC and PI double staining method for apoptosis staining. FL1 channel was selected for FITC, and FL2 channel was selected for PI. Flow cytometry analysis was used to detect cell apoptosis. Q1, Q2, Q3, and Q4 represented dead cells, late apoptotic cells, early apoptotic cells, and normal cells, respectively (FIG. 7). After treating A549 and NCI-H460 cells with the compound of formula (I) at different concentrations (0 μM, 10 μM, 30 μM, and 90 μM) for 72 h, the flow cytometry results are as follows. Table 1 and Table 2 show the proportions of dead cells, late apoptotic cells, early apoptotic cells, and normal cells after treating the A549 and NCI-H460 cells with different concentrations of the compound of formula (I), respectively.

[3] = system: A549 cells; experiment: Flow cytometry for apoptosis detection (Annexin V-FITC/PI), A549; type: cell-based, human; conditions: 72 h
Protocol: as §1, §2, §3, §4, §5, §6

Structure (SMILES): N.N.[Cl][Pt][Cl] [DDP, cisplatin]
- Mean animal body weight ([1]; D1): 20.8 ± 0.4 g
- Mean animal body weight ([1]; D5): 20.3 ± 0.6 g
- body weight loss rate ([1]; D5): (2.1%)
- Mean animal body weight ([1]; D8): 20.5 ± 0.4 g
- body weight loss rate ([1]; D8): (1.4%)
- Mean animal body weight ([1]; D12): 19.4 ± 0.4 g
- body weight loss rate ([1]; D12): (6.7%)
- Mean animal body weight ([1]; D15): 19.9 ± 0.3 g
- body weight loss rate ([1]; D15): (4.3%)
- Mean animal body weight ([1]; D19): 19.0 ± 0.3 g
- body weight loss rate ([1]; D19): (8.5%)
- Mean animal body weight ([1]; D22): 19.5 ± 0.4 g
- body weight loss rate ([1]; D22): (5.9%)
- Mean animal body weight ([1]; D26): 17.7 ± 0.3 g
- body weight loss rate ([1]; D26): (15%)
- Mean animal body weight ([1]; D29): 17.9 ± 0.3 g
- body weight loss rate ([1]; D29): (14%)
- Mean animal body weight ([1]; D33): 18.7 ± 0.4 g
- body weight loss rate ([1]; D33): (10%)
- Mean animal body weight ([1]; D36): 18.7 ± 0.3 g
- body weight loss rate ([1]; D36): (10%)

Structure (SMILES): COC1=C(OC)C(=O)C(CCCCCCCCCCOC(=O)Cc2c(C)n(C(=O)c3ccc(Cl)cc3)c3ccc(OC)cc23)=C(C)C1=O [compound of formula (I)]
- Q1 Gated % (dead cells) ([2]; 10 μM): 1.72 ± 0.08%
- Q2 Gated % (late apoptotic cells) ([2]; 10 μM): 3.23 ± 2.59%
- Q3 Gated % (early apoptotic cells) ([2]; 10 μM): 1.55 ± 1.16%
- Q4 Gated % (normal cells) ([2]; 10 μM): 93.5 ± 3.82%
- percentage of apoptosis (total apoptosis) ([2]; 10 μM): 4.78 ± 3.75
- Q1 Gated % (dead cells) ([2]; 30 μM): 1.75 ± 0.45%
- Q2 Gated % (late apoptotic cells) ([2]; 30 μM): 4.79 ± 0.37%
- Q3 Gated % (early apoptotic cells) ([2]; 30 μM): 5.01 ± 1.70%
- Q4 Gated % (normal cells) ([2]; 30 μM): 88.45 ± 2.47%
- percentage of apoptosis (total apoptosis) ([2]; 30 μM): 9.8 ± 2.06
- Q1 Gated % (dead cells) ([2]; 90 μM): 0.55 ± 0.04%
- Q2 Gated % (late apoptotic cells) ([2]; 90 μM): 9.32 ± 0.35%
- Q3 Gated % (early apoptotic cells) ([2]; 90 μM): 38.35 ± 2.33%
- Q4 Gated % (normal cells) ([2]; 90 μM): 51.85 ± 2.05%
- percentage of apoptosis (total apoptosis) ([2]; 90 μM): 47.67 ± 1.99
- Q1 Gated % (dead cells) ([3]; 10 μM): 1.07 ± 0.51%
- Q2 Gated % (late apoptotic cells) ([3]; 10 μM): 2.57 ± 0.48%
- Q3 Gated % (early apoptotic cells) ([3]; 10 μM): 1.86 ± 0.37%
- Q4 Gated % (normal cells) ([3]; 10 μM): 94.5 ± 0.57%
- percentage of apoptosis (total apoptosis) ([3]; 10 μM): 4.43 ± 0.11
- Q1 Gated % (dead cells) ([3]; 30 μM): 1.34 ± 0.19%
- Q2 Gated % (late apoptotic cells) ([3]; 30 μM): 3.08 ± 0.16%
- Q3 Gated % (early apoptotic cells) ([3]; 30 μM): 2.58 ± 1.38%
- Q4 Gated % (normal cells) ([3]; 30 μM): 93.05 ± 1.34%
- percentage of apoptosis (total apoptosis) ([3]; 30 μM): 5.65 ± 1.54
- Q1 Gated % (dead cells) ([3]; 90 μM): 0.31 ± 0.14%
- Q2 Gated % (late apoptotic cells) ([3]; 90 μM): 20.9 ± 3.39%
- Q3 Gated % (early apoptotic cells) ([3]; 90 μM): 50.4 ± 1.41%
- Q4 Gated % (normal cells) ([3]; 90 μM): 28.4 ± 4.67%
- percentage of apoptosis (total apoptosis) ([3]; 90 μM): 71.3 ± 4.81
